# Reference: patent publication US8080657B2, “Compounds of reverse turn mimetics and the use thereof” (Choongwae Pharma Corporation, priority 2008, dated 2011)
# Read-outs that look alike come from different tables or passages of the source.
# Tested on: Wnt signaling
# Experiment: TopFlash reporter gene bioassay in SW480 cells
# Type: cell-based
# Conditions: read-out: RGA, IC50 (μM) TopF
# [1] = Homo sapiens, SW480, TopFlash reporter gene assay, inhibition of Wnt signaling
IC50 [1],Compound,also measured
28.8 ± 5.69 µM,C=CCN1CC(=O)N2[C@@H](Cc3ccc(O)cc3)C(=O)N(Cc3csc4cc(NS(N)(=O)=O)ccc34)C[C@@H]2N1C(=O)NCc1ccccc1 [compound 202],
3.13 ± 0.44 µM,C=CCN1CC(=O)N2[C@@H](Cc3ccc(O)cc3)C(=O)N(Cc3cccc4ccn(Cc5cccc([N+](=O)[O-])c5)c34)C[C@@H]2N1C(=O)NCc1ccccc1 [compound 204],
,C=CCN1CC(=O)N2[C@@H](Cc3ccc(O)cc3)C(=O)N(Cc3cccc4cc[nH]c34)C[C@@H]2N1C(=O)NCc1ccccn1 [compound 205],"IC50 (Homo sapiens, SW480): 3.14 ± 0.68 µM"
3.18 ± 0.75 µM,C=CCN1CC(=O)N2[C@@H](Cc3ccc(O)cc3)C(=O)N(Cc3csc4c(N)cccc34)C[C@@H]2N1C(=O)NCc1ccccc1 [compound 206],
3.25 ± 0.41 µM,C=CCN1CC(=O)N2[C@@H](Cc3ccc(O)cc3)C(=O)N(Cc3cccc(C(N)=O)c3)C[C@@H]2N1C(=O)NCc1ccccc1 [compound 207],
3.27 ± 0.8 µM,C=CCN1CC(=O)N2[C@@H](Cc3ccc(O)cc3)C(=O)N(Cc3ccc(OC)c(-c4cccnc4)c3)C[C@@H]2N1C(=O)NCc1ccccc1 [compound 208],
3.3 ± 0.58 µM,C=CCN1CC(=O)N2[C@@H](Cc3ccc(O)cc3)C(=O)N(Cc3cccc(-c4ncc[nH]4)c3)C[C@@H]2N1C(=O)NCc1ccccc1 [compound 209],
3.57 ± 0.89 µM,C=CCN1CC(=O)N2[C@@H](Cc3ccc(O)cc3)C(=O)N(Cc3cccc(C(=O)NNC(=O)OC(C)(C)C)c3)C[C@@H]2N1C(=O)NCc1ccccc1 [compound 210],
3.61 ± 0.47 µM,C=CCN1CC(=O)N2[C@@H](Cc3ccc(O)cc3)C(=O)N(Cc3cn(S(=O)(=O)c4ccc(C)cc4)c4ccccc34)C[C@@H]2N1C(=O)NCc1ccccc1 [compound 211],
3.62 ± 0.63 µM,C=CCN1CC(=O)N2[C@@H](Cc3ccc(O)cc3)C(=O)N(Cc3cccc(C(=O)N4CCOCC4)c3)C[C@@H]2N1C(=O)NCc1ccccc1 [compound 212],
3.62 ± 0.65 µM,C=CCN1CC(=O)N2[C@@H](Cc3ccc(O)cc3)C(=O)N(Cc3cccc4ccn(Cc5cccc(N)c5)c34)C[C@@H]2N1C(=O)NCc1ccccc1 [compound 213],
3.72 ± 0.47 µM,C=CCN1CC(=O)N2[C@@H](Cc3ccc(O)cc3)C(=O)N(Cc3ccc(OCCCC)cc3)C[C@@H]2N1C(=O)NCc1ccccc1 [compound 214],
,C=CCN1CC(=O)N2[C@@H](Cc3ccc(OP(=O)(O)O)cc3)C(=O)N(Cc3ccc(OC)cc3F)C[C@@H]2N1C(=O)NCc1ccccc1 [compound 216],"IC50 (Homo sapiens, SW480): 3.8 ± 1.1 µM"
3.87 ± 0.45 µM,C=CCN1CC(=O)N2[C@@H](Cc3ccc(O)cc3)C(=O)N(Cc3cccc(-c4cccnc4)n3)C[C@@H]2N1C(=O)NCc1ccccc1 [compound 217],
3.96 ± 0.93 µM,C=CCN1CC(=O)N2[C@@H](Cc3ccc(O)cc3)C(=O)N(Cc3cccc(-c4cccc(OC)c4)n3)C[C@@H]2N1C(=O)NCc1ccccc1 [compound 218],
3.97 ± 0.57 µM,C=CCN1CC(=O)N2[C@@H](Cc3ccc(O)cc3)C(=O)N(Cc3ccccc3Sc3ccc(Cl)cc3)C[C@@H]2N1C(=O)NCc1ccccc1 [compound 219],
33.1 ± 4.07 µM,C=CCN1CC(=O)N2[C@@H](Cc3ccc(OS(=O)(=O)NC(=O)OCCN(C)C)cc3)C(=O)N(Cc3cccc4c(C(=O)C5CC5)c[nH]c34)C[C@@H]2N1C(=O)NCc1ccccc1 [compound 220],
36.1 ± 2.69 µM,C=CCN1CC(=O)N2C(Cc3ccc(O)cc3)C(=O)N(Cc3ccccc3N3CCNCC3)CC2N1C(=O)NCc1ccccc1 (stereo not shown) [compound 221],
36.4 ± 2 µM,C=CCN1CC(=O)N2[C@@H](Cc3ccc(OCC(O)CO)cc3)C(=O)N(Cc3cccc4scnc34)C[C@@H]2N1C(=O)NCc1ccccc1 (stereo partly shown) [compound 222],
,C=CCN1CC(=O)N2[C@@H](Cc3ccc(O)cc3)C(=O)N(Cc3ccc4cc[nH]c4c3)C[C@@H]2N1C(=O)NCc1ccccc1 [compound 223],"IC50 (Homo sapiens, SW480): 4.01 ± 0.96 µM"
4.3 ± 0.7 µM,C=CCN1CC(=O)N2[C@@H](Cc3ccc(O)cc3)C(=O)N(Cc3ccc(F)c4scnc34)C[C@@H]2N1C(=O)NCc1ccc(OC)c(OC)c1 [compound 224],
4.3 ± 0.67 µM,C=CCN1CC(=O)N2[C@@H](Cc3ccc(O)cc3)C(=O)N(Cc3cccc(NC(N)=O)c3)C[C@@H]2N1C(=O)NCc1ccccc1 [compound 225],
4.33 ± 0.5 µM,C=CCN1CC(=O)N2[C@@H](Cc3ccc(O)cc3)C(=O)N(Cc3cccc(OC)c3OC3Cc4ccccc4C3)C[C@@H]2N1C(=O)NCc1ccccc1 [compound 226],
4.51 ± 0.72 µM,C=CCN1CC(=O)N2[C@@H](Cc3ccc(O)cc3)C(=O)N(Cc3ccc4ncoc4c3)C[C@@H]2N1C(=O)NCc1ccccc1 [compound 228],
4.78 ± 0.69 µM,C=CCN1CC(=O)N2[C@@H](Cc3ccc(OS(N)(=O)=O)cc3)C(=O)N(Cc3cccc(C(N)=O)c3)C[C@@H]2N1C(=O)NCc1ccccc1 [compound 229],
4.97 ± 0.73 µM,CN1CC(=O)N2[C@@H](Cc3ccc(O)cc3)C(=O)N(Cc3cccc4scnc34)C[C@@H]2N1C(=O)NCc1ccccc1 [compound 232],
4.98 ± 0.69 µM,C=CCN1CC(=O)N2[C@@H](Cc3ccc(O)cc3)C(=O)N(Cc3cncc(C(=O)OC)c3)C[C@@H]2N1C(=O)NCc1ccccc1 [compound 233],
40.2 ± 5.7 µM,C=CCN1CC(=O)N2[C@@H](Cc3ccc(O)c(Cl)c3)C(=O)N(Cc3cccc4scnc34)C[C@@H]2N1C(=O)NCc1ccccc1 [compound 234],

IC50 [1],Compound,also measured
40.7 ± 6.4 µM,C=CCN1CC(=O)N2[C@@H](Cc3ccc(O)c(Br)c3)C(=O)N(Cc3cccc4scnc34)C[C@@H]2N1C(=O)NCc1ccccc1 [compound 235],
41.7 ± 4.2 µM,C=CCN1CC(=O)N2[C@@H](Cc3ccc(O)cc3)C(=O)N(Cc3ccc(C(C)(C)C)cc3)C[C@@H]2N1C(=O)NCc1ccccc1 [compound 236],
49.8 ± 4.8 µM,C=CCN1CC(=O)N2[C@@H](Cc3ccc(O)cc3)C(=O)N(Cc3ccc(F)c4scnc34)C[C@@H]2N1C(=O)NCC1CCCCC1 [compound 238],
5.09 ± 1.32 µM,C=CCN1CC(=O)N2[C@@H](Cc3ccc(O)cc3)C(=O)N(Cc3cccc(C(=O)N4CC=CC4)c3)C[C@@H]2N1C(=O)NCc1ccccc1 [compound 239],
5.41 ± 0.89 µM,C=CCN1CC(=O)N2[C@@H](Cc3ccc(O)cc3)C(=O)N(Cc3cccc(C(=O)N(C)C)c3)C[C@@H]2N1C(=O)NCc1ccccc1 [compound 240],
5.81 ± 0.58 µM,C=CCN1CC(=O)N2[C@@H](Cc3ccc(O)cc3)C(=O)N(Cc3cccc(NS(N)(=O)=O)c3)C[C@@H]2N1C(=O)NCc1ccccc1 [compound 243],
5.98 ± 1.03 µM,C=CCN1CC(=O)N2[C@@H](Cc3ccc(O)cc3)C(=O)N(Cc3cc4c(cc3[N+](=O)[O-])OCO4)C[C@@H]2N1C(=O)NCc1ccccc1 [compound 244],
,C=CCN1CC(=O)N2[C@@H](Cc3ccc(O)cc3)C(=O)N(Cc3ccc(F)c4scnc34)C[C@@H]2N1C(=O)NCCc1ccccc1 [compound 245],"IC50 (TopFlash reporter gene assay, inhibition of Wnt signaling): 6.19 ± 0.73 µM"
,C=CCN1CC(=O)N2[C@@H](Cc3ccc(O)cc3)C(=O)N(Cc3csc4ccc(NS(C)(=O)=O)cc34)C[C@@H]2N1C(=O)NCc1ccccc1 [compound 246],"IC50 (Homo sapiens, SW480): 6.59 ± 0.86 µM"
6.66 ± 0.88 µM,C=CCN1CC(=O)N2[C@@H](Cc3ccc(O)cc3)C(=O)N(Cc3ccc(OCCC)cc3)C[C@@H]2N1C(=O)NCc1ccccc1 [compound 247],
6.71 ± 1.57 µM,C=CCN1CC(=O)N2[C@@H](Cc3ccc(O)cc3)C(=O)N(Cc3cccc(-c4ccc(O)cc4)n3)C[C@@H]2N1C(=O)NCc1ccccc1 [compound 248],
6.8 ± 1.5 µM,C=CCN1CC(=O)N2[C@@H](Cc3ccc(O)cc3)C(=O)N(Cc3ccc(OCC)cc3)C[C@@H]2N1C(=O)NCc1ccccc1 [compound 249],
6.98 ± 1.45 µM,C=CCN1CC(=O)N2[C@@H](Cc3ccc(O)cc3)C(=O)N(Cc3csc4c(NC(C)=O)cccc34)C[C@@H]2N1C(=O)NCc1ccccc1 [compound 250],
,C=CCN1CC(=O)N2[C@@H](Cc3ccc(OC(N)=O)cc3)C(=O)N(Cc3ccc(F)cc3F)C[C@@H]2N1C(=O)NCc1ccccc1 [compound 251],"IC50 (Homo sapiens, SW480): 1.14 ± 0.07 µM"
7.05 ± 0.87 µM,C=CCN1CC(=O)N2[C@@H](Cc3ccc(O)cc3)C(=O)N(Cc3cccc(OC)c3Oc3cccc(F)c3)C[C@@H]2N1C(=O)NCc1ccccc1 [compound 252],
7.1 ± 0.99 µM,C=CCN1CC(=O)N2[C@@H](Cc3ccc(O)cc3)C(=O)N(Cc3c[nH]c4ccc(OC)cc34)C[C@@H]2N1C(=O)NCc1ccccc1 [compound 253],
7.13 ± 1.35 µM,C=CCN1CC(=O)N2[C@@H](Cc3ccc(O)cc3)C(=O)N(Cc3ccc(N)c([N+](=O)[O-])c3)C[C@@H]2N1C(=O)NCc1ccccc1 [compound 254],
7.17 ± 1.33 µM,C=CCN1CC(=O)N2[C@@H](Cc3ccc(O)cc3)C(=O)N(Cc3ccc(F)c4scnc34)C[C@@H]2N1C(=O)NCc1ccc(C#N)cc1 [compound 255],
7.2 ± 1.06 µM,C=CCN1CC(=O)N2[C@@H](Cc3ccc(O)cc3)C(=O)N(Cc3cccc(C(=O)NCCO)c3)C[C@@H]2N1C(=O)NCc1ccccc1 [compound 256],
7.26 ± 1.3 µM,C=CCN1CC(=O)N2[C@@H](Cc3ccc(O)cc3)C(=O)N(Cc3cccnc3-c3cccc(C#N)c3)C[C@@H]2N1C(=O)NCc1ccccc1 [compound 257],
7.51 ± 2.1 µM,C=CCN1CC(=O)N2[C@@H](Cc3ccc(O)cc3)C(=O)N(Cc3cccc(C(=O)NC)c3[N+](=O)[O-])C[C@@H]2N1C(=O)NCc1ccccc1 [compound 258],
7.62 ± 1.89 µM,C=CCN1CC(=O)N2[C@@H](Cc3ccc(O)cc3)C(=O)N(Cc3ccc([N+](=O)[O-])c(O)c3)C[C@@H]2N1C(=O)NCc1ccccc1 [compound 259],
8.43 ± 2.07 µM,C=CCN1CC(=O)N2[C@@H](Cc3ccc(O)cc3)C(=O)N(Cc3cccc(C(=O)Nc4cc[nH]n4)c3)C[C@@H]2N1C(=O)NCc1ccccc1 [compound 260],
8.48 ± 0.9 µM,C=CCN1CC(=O)N2[C@@H](Cc3ccc(O)cc3)C(=O)N(Cc3cccc(-c4ccc(S(C)(=O)=O)cc4)n3)C[C@@H]2N1C(=O)NCc1ccccc1 [compound 261],
8.48 ± 1.37 µM,C=CCN1CC(=O)N2[C@@H](Cc3ccc(O)cc3)C(=O)N(Cc3cccc(OC)c3OC)C[C@@H]2N1C(=O)NCc1ccccn1 [compound 262],
9.09 ± 0.67 µM,C=CCN1CC(=O)N2[C@@H](Cc3ccc(O)cc3)C(=O)N(CC3=CS(=O)(=O)c4ccccc43)C[C@@H]2N1C(=O)NCc1ccccc1 [compound 263],
9.11 ± 1.82 µM,C=CCN1CC(=O)N2[C@@H](Cc3ccc(O)cc3)C(=O)N(Cc3ccnc(N)n3)C[C@@H]2N1C(=O)NCc1ccccc1 [compound 264],
